According to the kinase profiling compilation of Christmann-Franck et al. (2016):
Blank lines part the entries; values can stand above or below the molecule they belong to.

How the values were obtained:
Experiment in all cases: KINOMEscan competition binding
Conditions in all cases: compound 10.0 µM
CHEK1 (human) = CHEK1 (human) (UniProt O14757)
CDK11A (human) = CDK11A (human) (UniProt Q9UQ88)
PRKCD (human) = PRKCD (human) (UniProt Q05655)
HCK (human) = HCK (human) (UniProt P08631)
EPHB3 (human) = EPHB3 (human) (UniProt P54753)
[1] = target: JAK1 JH1 catalytic (human) (UniProt P23458)
NTRK2 (human) = NTRK2 (human) (UniProt Q16620)
MAP2K6 (human) = MAP2K6 (human) (UniProt P52564)
CDK2 (human) = CDK2 (human) (UniProt P24941)
PKMYT1 (human) = PKMYT1 (human) (UniProt Q99640)
FLT4 (human) = FLT4 (human) (UniProt P35916)
PRKCE (human) = PRKCE (human) (UniProt Q02156)
TNNI3K (human) = TNNI3K (human) (UniProt Q59H18)
EPHA4 (human) = EPHA4 (human) (UniProt P54764)
CHEK2 (human) = CHEK2 (human) (UniProt O96017)
EPHA1 (human) = EPHA1 (human) (UniProt P21709)
DDR2 (human) = DDR2 (human) (UniProt Q16832)
ALK (human) = ALK (human) (UniProt Q9UM73)
RPS6KA2 KD1 (human) = RPS6KA2 KD1 (human) (UniProt Q15349)
LTK (human) = LTK (human) (UniProt P29376)
CDK5 (human) = CDK5 (human) (UniProt Q00535)
CAMK1 (human) = CAMK1 (human) (UniProt Q14012)
MAPK14 (human) = MAPK14 (human) (UniProt Q16539)
FGFR3 (human) = FGFR3 (human) (UniProt P22607)
[2] = test system: EGFR (human), P00533 [L861Q]
BRSK1 (human) = BRSK1 (human) (UniProt Q8TDC3)
PRKG2 (human) = PRKG2 (human) (UniProt Q13237)
[3] = test system: ABL1 (human), P00519 [F317L]
PDPK1 (human) = PDPK1 (human) (UniProt O15530)
PAK1 (human) = PAK1 (human) (UniProt Q13153)
EPHA2 (human) = EPHA2 (human) (UniProt P29317)
MAPK10 (human) = MAPK10 (human) (UniProt P53779)
AURKA (human) = AURKA (human) (UniProt O14965)
ITK (human) = ITK (human) (UniProt Q08881)
FYN (human) = FYN (human) (UniProt P06241)
WEE1 (human) = WEE1 (human) (UniProt P30291)
LIMK1 (human) = LIMK1 (human) (UniProt P53667)
MET (human) = MET (human) (UniProt P08581)
ERBB4 (human) = ERBB4 (human) (UniProt Q15303)
ABL2 (human) = ABL2 (human) (UniProt P42684)
[4] = test system: EGFR (human), P00533 [G719C; 746-750 del]
IRAK3 (human) = IRAK3 (human) (UniProt Q9Y616)

Chain of BRSK1 (human) (Q8TDC3 whole entry, looked up): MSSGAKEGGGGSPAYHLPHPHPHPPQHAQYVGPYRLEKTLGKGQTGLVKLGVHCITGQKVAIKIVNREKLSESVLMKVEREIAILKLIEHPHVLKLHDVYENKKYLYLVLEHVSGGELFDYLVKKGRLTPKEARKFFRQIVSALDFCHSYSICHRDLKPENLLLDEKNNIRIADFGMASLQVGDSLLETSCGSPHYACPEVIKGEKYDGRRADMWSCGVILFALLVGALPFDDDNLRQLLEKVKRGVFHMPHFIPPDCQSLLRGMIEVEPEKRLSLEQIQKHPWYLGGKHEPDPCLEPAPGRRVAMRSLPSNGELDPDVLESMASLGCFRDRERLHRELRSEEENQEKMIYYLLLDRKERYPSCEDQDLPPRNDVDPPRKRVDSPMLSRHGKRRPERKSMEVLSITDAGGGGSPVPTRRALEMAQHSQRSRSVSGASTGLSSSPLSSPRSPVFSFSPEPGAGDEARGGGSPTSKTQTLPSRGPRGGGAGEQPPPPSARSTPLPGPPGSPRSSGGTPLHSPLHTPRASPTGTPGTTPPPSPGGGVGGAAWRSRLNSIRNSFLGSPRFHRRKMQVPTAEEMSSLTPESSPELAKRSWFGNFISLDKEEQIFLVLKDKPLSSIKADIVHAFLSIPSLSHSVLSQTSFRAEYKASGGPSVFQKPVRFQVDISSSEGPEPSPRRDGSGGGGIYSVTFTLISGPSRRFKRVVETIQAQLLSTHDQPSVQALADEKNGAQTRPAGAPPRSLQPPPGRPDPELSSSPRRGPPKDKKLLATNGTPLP
Chain of CDK11A (human) (Q9UQ88 whole entry, looked up): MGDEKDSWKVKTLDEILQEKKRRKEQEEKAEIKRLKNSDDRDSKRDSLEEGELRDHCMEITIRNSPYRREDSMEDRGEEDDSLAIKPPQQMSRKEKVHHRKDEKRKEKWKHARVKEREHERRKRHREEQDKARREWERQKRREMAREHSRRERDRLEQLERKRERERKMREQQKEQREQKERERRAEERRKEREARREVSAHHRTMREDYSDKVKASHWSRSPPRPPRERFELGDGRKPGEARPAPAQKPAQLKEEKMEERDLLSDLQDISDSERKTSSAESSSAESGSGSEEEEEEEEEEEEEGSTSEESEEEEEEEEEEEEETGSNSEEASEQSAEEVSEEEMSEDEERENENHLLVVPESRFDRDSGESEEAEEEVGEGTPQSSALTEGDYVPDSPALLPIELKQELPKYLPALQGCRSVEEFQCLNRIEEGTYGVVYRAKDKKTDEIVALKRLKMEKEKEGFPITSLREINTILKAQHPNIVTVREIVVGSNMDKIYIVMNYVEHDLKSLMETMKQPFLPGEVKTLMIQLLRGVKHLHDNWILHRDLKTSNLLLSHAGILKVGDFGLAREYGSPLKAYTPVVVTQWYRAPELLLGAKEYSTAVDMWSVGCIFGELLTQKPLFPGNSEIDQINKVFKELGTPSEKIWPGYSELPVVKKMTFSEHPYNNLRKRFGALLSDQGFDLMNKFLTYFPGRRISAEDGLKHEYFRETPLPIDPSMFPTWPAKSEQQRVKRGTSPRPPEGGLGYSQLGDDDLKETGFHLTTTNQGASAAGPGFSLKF
Chain of LTK (human) (P29376 whole entry, looked up): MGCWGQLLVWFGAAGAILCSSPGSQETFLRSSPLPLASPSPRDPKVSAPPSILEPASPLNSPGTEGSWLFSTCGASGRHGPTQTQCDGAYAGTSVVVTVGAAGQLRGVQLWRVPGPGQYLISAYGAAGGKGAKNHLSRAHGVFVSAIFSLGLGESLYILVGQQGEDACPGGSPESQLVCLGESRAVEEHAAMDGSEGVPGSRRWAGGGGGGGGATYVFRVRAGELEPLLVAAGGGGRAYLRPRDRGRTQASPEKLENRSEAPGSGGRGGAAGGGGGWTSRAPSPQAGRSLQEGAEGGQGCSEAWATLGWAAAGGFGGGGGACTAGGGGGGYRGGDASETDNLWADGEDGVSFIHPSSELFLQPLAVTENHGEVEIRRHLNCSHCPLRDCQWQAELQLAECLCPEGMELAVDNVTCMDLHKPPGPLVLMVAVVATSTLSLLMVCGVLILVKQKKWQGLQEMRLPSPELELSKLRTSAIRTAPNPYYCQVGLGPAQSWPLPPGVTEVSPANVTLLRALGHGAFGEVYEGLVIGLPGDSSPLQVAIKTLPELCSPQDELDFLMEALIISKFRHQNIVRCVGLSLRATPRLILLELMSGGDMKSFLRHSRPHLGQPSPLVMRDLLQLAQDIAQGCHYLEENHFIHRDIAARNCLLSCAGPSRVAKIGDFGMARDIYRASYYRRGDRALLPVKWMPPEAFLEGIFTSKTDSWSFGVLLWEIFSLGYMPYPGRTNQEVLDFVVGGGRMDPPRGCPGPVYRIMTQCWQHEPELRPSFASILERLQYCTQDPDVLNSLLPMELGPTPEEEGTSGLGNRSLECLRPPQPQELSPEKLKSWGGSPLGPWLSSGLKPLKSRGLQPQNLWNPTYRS
Chain of RPS6KA2 KD1 (human) (Q15349 whole entry, looked up): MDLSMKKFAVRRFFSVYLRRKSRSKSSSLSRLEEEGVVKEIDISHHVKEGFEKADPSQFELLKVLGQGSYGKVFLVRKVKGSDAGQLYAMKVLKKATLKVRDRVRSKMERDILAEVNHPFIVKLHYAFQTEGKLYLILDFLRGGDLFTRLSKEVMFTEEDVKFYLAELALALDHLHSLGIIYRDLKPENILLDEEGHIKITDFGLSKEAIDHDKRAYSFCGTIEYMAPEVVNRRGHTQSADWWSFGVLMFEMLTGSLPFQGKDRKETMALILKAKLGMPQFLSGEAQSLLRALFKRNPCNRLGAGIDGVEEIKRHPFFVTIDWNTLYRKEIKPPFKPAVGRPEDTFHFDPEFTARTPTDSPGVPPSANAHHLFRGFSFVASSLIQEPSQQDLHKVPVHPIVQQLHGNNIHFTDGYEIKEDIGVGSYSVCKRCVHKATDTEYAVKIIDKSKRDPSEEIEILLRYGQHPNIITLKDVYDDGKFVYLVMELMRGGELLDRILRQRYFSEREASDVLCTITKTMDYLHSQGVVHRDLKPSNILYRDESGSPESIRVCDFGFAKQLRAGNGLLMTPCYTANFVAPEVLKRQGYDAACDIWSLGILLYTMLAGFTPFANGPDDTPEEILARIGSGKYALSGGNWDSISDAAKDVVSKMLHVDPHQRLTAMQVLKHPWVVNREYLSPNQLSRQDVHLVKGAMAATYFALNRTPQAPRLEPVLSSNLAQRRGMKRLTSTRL
Chain of NTRK2 (human) (Q16620 whole entry, looked up): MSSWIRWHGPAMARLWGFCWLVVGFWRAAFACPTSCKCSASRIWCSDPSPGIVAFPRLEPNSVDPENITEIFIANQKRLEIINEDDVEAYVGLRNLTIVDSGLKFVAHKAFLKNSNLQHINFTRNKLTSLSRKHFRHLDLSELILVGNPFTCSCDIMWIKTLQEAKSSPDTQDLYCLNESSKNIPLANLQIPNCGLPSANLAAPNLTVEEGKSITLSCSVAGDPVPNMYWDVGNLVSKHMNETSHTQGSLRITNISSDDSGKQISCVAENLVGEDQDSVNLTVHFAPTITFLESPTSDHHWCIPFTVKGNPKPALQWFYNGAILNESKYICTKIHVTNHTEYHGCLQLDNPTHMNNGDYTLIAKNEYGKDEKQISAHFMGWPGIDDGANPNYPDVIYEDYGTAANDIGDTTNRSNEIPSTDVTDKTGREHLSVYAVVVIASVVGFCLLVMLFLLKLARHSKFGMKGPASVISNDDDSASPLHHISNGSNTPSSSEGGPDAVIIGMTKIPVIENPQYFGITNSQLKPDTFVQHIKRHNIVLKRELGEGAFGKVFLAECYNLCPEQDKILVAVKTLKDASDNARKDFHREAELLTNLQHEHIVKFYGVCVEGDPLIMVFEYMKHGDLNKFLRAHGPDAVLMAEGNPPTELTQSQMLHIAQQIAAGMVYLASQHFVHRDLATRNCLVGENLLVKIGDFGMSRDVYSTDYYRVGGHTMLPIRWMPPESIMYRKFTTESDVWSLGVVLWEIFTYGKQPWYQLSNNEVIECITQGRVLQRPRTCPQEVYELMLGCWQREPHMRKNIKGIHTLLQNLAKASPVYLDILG
Chain of CHEK1 (human) (O14757 whole entry, looked up): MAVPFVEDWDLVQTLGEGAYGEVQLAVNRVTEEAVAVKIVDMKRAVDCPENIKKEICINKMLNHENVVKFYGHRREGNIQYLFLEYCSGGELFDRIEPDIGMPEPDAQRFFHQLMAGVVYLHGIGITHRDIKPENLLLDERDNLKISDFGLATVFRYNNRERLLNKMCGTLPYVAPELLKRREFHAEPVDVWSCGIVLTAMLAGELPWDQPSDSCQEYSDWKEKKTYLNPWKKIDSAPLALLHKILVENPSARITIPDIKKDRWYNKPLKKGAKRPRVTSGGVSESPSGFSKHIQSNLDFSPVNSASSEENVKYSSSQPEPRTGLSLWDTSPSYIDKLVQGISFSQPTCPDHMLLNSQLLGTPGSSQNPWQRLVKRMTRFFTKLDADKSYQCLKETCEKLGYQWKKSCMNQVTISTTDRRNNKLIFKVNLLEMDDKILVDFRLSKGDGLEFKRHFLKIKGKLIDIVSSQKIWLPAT
Chain of CDK5 (human) (Q00535 whole entry, looked up): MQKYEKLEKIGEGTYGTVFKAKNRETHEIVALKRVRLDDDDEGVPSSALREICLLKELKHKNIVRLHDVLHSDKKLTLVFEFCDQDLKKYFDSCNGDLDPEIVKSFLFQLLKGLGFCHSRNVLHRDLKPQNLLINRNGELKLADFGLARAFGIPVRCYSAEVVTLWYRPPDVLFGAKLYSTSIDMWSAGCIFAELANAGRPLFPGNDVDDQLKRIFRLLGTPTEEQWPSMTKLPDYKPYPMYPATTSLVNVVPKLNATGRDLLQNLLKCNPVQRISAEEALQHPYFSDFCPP

- kinase still bound, per cent of control (CHEK1 (human)): 60%
- kinase still bound, per cent of control (CDK11A (human)): 95%
- kinase still bound, per cent of control (PRKCD (human)): 100%
- kinase still bound, per cent of control (HCK (human)): 100%
- kinase still bound, per cent of control (EPHB3 (human)): 93%
- kinase still bound, per cent of control [1]: 100%
- kinase still bound, per cent of control (NTRK2 (human)): 83%
- kinase still bound, per cent of control (MAP2K6 (human)): 100%
- kinase still bound, per cent of control (CDK2 (human)): 92%
- kinase still bound, per cent of control (PKMYT1 (human)): 92%
- kinase still bound, per cent of control (FLT4 (human)): 96%
- kinase still bound, per cent of control (PRKCE (human)): 97%
- kinase still bound, per cent of control (TNNI3K (human)): 84%
- kinase still bound, per cent of control (EPHA4 (human)): 100%
- kinase still bound, per cent of control (CHEK2 (human)): 77%
- kinase still bound, per cent of control (EPHA1 (human)): 87%
- kinase still bound, per cent of control (DDR2 (human)): 91%
- kinase still bound, per cent of control (ALK (human)): 44%
- kinase still bound, per cent of control (RPS6KA2 KD1 (human)): 82%
- kinase still bound, per cent of control (LTK (human)): 83%
- kinase still bound, per cent of control (CDK5 (human)): 74%
- kinase still bound, per cent of control (CAMK1 (human)): 71%
- kinase still bound, per cent of control (MAPK14 (human)): 82%
- kinase still bound, per cent of control (FGFR3 (human)): 100%
- kinase still bound, per cent of control [2]: 46%
- kinase still bound, per cent of control (BRSK1 (human)): 81%
- kinase still bound, per cent of control (PRKG2 (human)): 84%
- kinase still bound, per cent of control [3]: 1.8%
- kinase still bound, per cent of control (PDPK1 (human)): 93%
- kinase still bound, per cent of control (PAK1 (human)): 81%
- kinase still bound, per cent of control (EPHA2 (human)): 100%
- kinase still bound, per cent of control (MAPK10 (human)): 70%
- kinase still bound, per cent of control (AURKA (human)): 75%
- kinase still bound, per cent of control (ITK (human)): 81%
- kinase still bound, per cent of control (FYN (human)): 86%
- kinase still bound, per cent of control (WEE1 (human)): 100%
- kinase still bound, per cent of control (LIMK1 (human)): 100%
- kinase still bound, per cent of control (MET (human)): 96%
- kinase still bound, per cent of control (ERBB4 (human)): 88%
- kinase still bound, per cent of control (ABL2 (human)): 92%
- kinase still bound, per cent of control [4]: 82%
- kinase still bound, per cent of control (IRAK3 (human)): 77%
Compound: COc1cc(N2CCN(C)CC2)ccc1Nc1ncc2c(n1)N(C)c1sccc1C(=O)N2C

- kinase still bound, per cent of control (CHEK1 (human)): 100%
- kinase still bound, per cent of control (CDK11A (human)): 100%
- kinase still bound, per cent of control (PRKCD (human)): 100%
- kinase still bound, per cent of control (HCK (human)): 100%
- kinase still bound, per cent of control (EPHB3 (human)): 100%
- kinase still bound, per cent of control [1]: 100%
- kinase still bound, per cent of control (NTRK2 (human)): 69%
- kinase still bound, per cent of control (MAP2K6 (human)): 100%
- kinase still bound, per cent of control (CDK2 (human)): 98%
- kinase still bound, per cent of control (PKMYT1 (human)): 93%
- kinase still bound, per cent of control (FLT4 (human)): 100%
- kinase still bound, per cent of control (PRKCE (human)): 100%
- kinase still bound, per cent of control (TNNI3K (human)): 100%
- kinase still bound, per cent of control (EPHA4 (human)): 97%
- kinase still bound, per cent of control (CHEK2 (human)): 100%
- kinase still bound, per cent of control (EPHA1 (human)): 100%
- kinase still bound, per cent of control (DDR2 (human)): 100%
- kinase still bound, per cent of control (ALK (human)): 100%
- kinase still bound, per cent of control (RPS6KA2 KD1 (human)): 100%
- kinase still bound, per cent of control (LTK (human)): 86%
- kinase still bound, per cent of control (CDK5 (human)): 100%
- kinase still bound, per cent of control (CAMK1 (human)): 100%
- kinase still bound, per cent of control (MAPK14 (human)): 100%
- kinase still bound, per cent of control (FGFR3 (human)): 100%
- kinase still bound, per cent of control [2]: 88%
- kinase still bound, per cent of control (BRSK1 (human)): 87%
- kinase still bound, per cent of control (PRKG2 (human)): 90%
- kinase still bound, per cent of control [3]: 83%
- kinase still bound, per cent of control (PDPK1 (human)): 100%
- kinase still bound, per cent of control (PAK1 (human)): 99%
- kinase still bound, per cent of control (EPHA2 (human)): 100%
- kinase still bound, per cent of control (MAPK10 (human)): 93%
- kinase still bound, per cent of control (AURKA (human)): 96%
- kinase still bound, per cent of control (ITK (human)): 100%
- kinase still bound, per cent of control (FYN (human)): 95%
- kinase still bound, per cent of control (WEE1 (human)): 100%
- kinase still bound, per cent of control (LIMK1 (human)): 100%
- kinase still bound, per cent of control (MET (human)): 100%
- kinase still bound, per cent of control (ERBB4 (human)): 100%
- kinase still bound, per cent of control (ABL2 (human)): 100%
- kinase still bound, per cent of control [4]: 100%
- kinase still bound, per cent of control (IRAK3 (human)): 92%
Compound: CN1CCN(c2ccc(C(=O)Nc3ncc4c(n3)N(C)c3ccccc3C(=O)N4C)cc2)CC1

- kinase still bound, per cent of control (CHEK1 (human)): 76%
- kinase still bound, per cent of control (CDK11A (human)): 100%
- kinase still bound, per cent of control (PRKCD (human)): 100%
- kinase still bound, per cent of control (HCK (human)): 35%
- kinase still bound, per cent of control (EPHB3 (human)): 100%
- kinase still bound, per cent of control [1]: 30%
- kinase still bound, per cent of control (NTRK2 (human)): 36%
- kinase still bound, per cent of control (MAP2K6 (human)): 100%
- kinase still bound, per cent of control (CDK2 (human)): 91%
- kinase still bound, per cent of control (PKMYT1 (human)): 100%
- kinase still bound, per cent of control (FLT4 (human)): 100%
- kinase still bound, per cent of control (PRKCE (human)): 99%
- kinase still bound, per cent of control (TNNI3K (human)): 100%
- kinase still bound, per cent of control (EPHA4 (human)): 97%
- kinase still bound, per cent of control (CHEK2 (human)): 81%
- kinase still bound, per cent of control (EPHA1 (human)): 100%
- kinase still bound, per cent of control (DDR2 (human)): 96%
- kinase still bound, per cent of control (ALK (human)): 100%
- kinase still bound, per cent of control (RPS6KA2 KD1 (human)): 68%
- kinase still bound, per cent of control (LTK (human)): 100%
- kinase still bound, per cent of control (CDK5 (human)): 100%
- kinase still bound, per cent of control (CAMK1 (human)): 100%
- kinase still bound, per cent of control (MAPK14 (human)): 100%
- kinase still bound, per cent of control (FGFR3 (human)): 62%
- kinase still bound, per cent of control [2]: 100%
- kinase still bound, per cent of control (BRSK1 (human)): 56%
- kinase still bound, per cent of control (PRKG2 (human)): 95%
- kinase still bound, per cent of control [3]: 20%
- kinase still bound, per cent of control (PDPK1 (human)): 97%
- kinase still bound, per cent of control (PAK1 (human)): 100%
- kinase still bound, per cent of control (EPHA2 (human)): 99%
- kinase still bound, per cent of control (MAPK10 (human)): 100%
- kinase still bound, per cent of control (AURKA (human)): 2.4%
- kinase still bound, per cent of control (ITK (human)): 96%
- kinase still bound, per cent of control (FYN (human)): 35%
- kinase still bound, per cent of control (WEE1 (human)): 100%
- kinase still bound, per cent of control (LIMK1 (human)): 97%
- kinase still bound, per cent of control (MET (human)): 77%
- kinase still bound, per cent of control (ERBB4 (human)): 100%
- kinase still bound, per cent of control (ABL2 (human)): 33%
- kinase still bound, per cent of control [4]: 100%
- kinase still bound, per cent of control (IRAK3 (human)): 82%
Compound: CN1C(=O)c2ccccc2N(C)c2nc(Nc3ccc(N4CCC(O)CC4)cc3)ncc21
